Measured values reported in patent US20240336638A1, “IMIDAZOLE COMPOUND, AND INTERMEDIATE AND APPLICATION THEREOF” (priority 2021, published 2024).
Read-outs that look alike come from different tables or passages of the source.

Columns and labels:
[1] = Pharmacokinetics in SD rats after single IV and PO administration, plasma; type: in vivo; conditions: Sprague-Dawley (SD), rat plasma; for Vd: rat, plasma, iv, 1 mg/kg; for MRT last: read-out: MRT(0−t); for MRT inf: read-out: MRT(0−∞)
Procedure: The experimental method of administration by gavage injection in rats: SD rats weighing 180 to 220 g were fasted for 12 hours prior to the experiment, with free access to water. After administration, food and water were withheld for 4 hours. After this 4-hour period, the rats were allowed free access to water, and food was provided after 8 hours. The drugs were administered at a set dose. N=3, blood samples were taken before administration, and 5 minutes, 0.25 hours, 0.5 hours, 0.75 hours, 1 hour, 2 hours, 4 hours, 8 hours, and 24 hours after administration, respectively, and placed into sodium heparin anticoagulant tubes. The tubes were centrifuged for 1 hour at 4° C. and at 8000 rpm for 5 minutes, and the plasma was then separated and stored in centrifuge tubes at −70° C. for analysis. The experimental method of intravenous administration to rats: SD rats weighing 180 to 220 g were fasted for 12 hours prior to the experiment, with free access to water. After administration, food and water were withheld for 4 hours. After this 4-hour period, the rats were allowed free access to water, and food was provided after 8 hours. The drugs were administered at a set dose. N=3, blood samples were taken before administration, and 5 minutes, 0.25 hours, 0.5 hours, 0.75 hours, 1 hour, 2 hours, 4 hours, 8 hours, and 24 hours after administration, respectively, and placed into sodium heparin anticoagulant tubes. The tubes were centrifuged for 1 hour at 4° C. and at 8000 rpm for 5 minutes, and the plasma was then separated and stored in centrifuge tubes at −70° C. for analysis. The plasma concentration-time data were processed using the Phoenix® WinNonlin® 8.0 program to calculate pharmacokinetic parameters. Among them, Cmax and Tmax are measured values, the elimination rate constant k of the tail section of the C-t curve is obtained from the linear regression of LnC-t, and the value of AUC0-4 is calculated by the trapezoidal area method, and the area under the curve from 0 to ∞ time is AUC=AUC0-4+Ct/k. [table]

[2] = Blood-brain barrier (BBB) study in SD rats after single IV and PO administration, brain; type: in vivo; conditions: rat brain; for Cmax / Tmax / half-life / MRT last / MRT inf: Sprague-Dawley (SD); for MRT last: read-out: MRT(0−t); for MRT inf: read-out: MRT(0−∞)
Procedure: Effect Example 3: Pharmacokinetic and blood-brain barrier (BBB) studies of compounds after single intravenous (IV) and oral (PO) administration in SD rats
(§1) The experimental method of administration by gavage injection in rats: SD rats weighing 180 to 220 g were fasted for 12 hours prior to the experiment, with free access to water. After administration, food and water were withheld for 4 hours. After this 4-hour period, the rats were allowed free access to water, and food was provided after 8 hours. The drugs were administered at a set dose. N=3, blood samples were taken before administration, and 5 minutes, 0.25 hours, 0.5 hours, 0.75 hours, 1 hour, 2 hours, 4 hours, 8 hours, and 24 hours after administration, respectively, and placed into sodium heparin anticoagulant tubes. The tubes were centrifuged for 1 hour at 4° C. and at 8000 rpm for 5 minutes, and the plasma was then separated and stored in centrifuge tubes at −70° C. for analysis.
as §1, with “of intravenous” for “of”, “to” for “by gavage injection in”
The plasma concentration-time data were processed using the Phoenix® WinNonlin® 8.0 program to calculate pharmacokinetic parameters.
Among them, Cmax and Tmax are measured values, the elimination rate constant k of the tail section of the C-t curve is obtained from the linear regression of LnC-t, and the value of AUC0-4 is calculated by the trapezoidal area method, and the area under the curve from 0 to ∞ time is AUC=AUC0-4+Ct/k.

Work on `O=C(O)/C=C/c1ccc(Cn2ccnc2)cc1` [Ozagrel, reference compound] yielded a Vd ([1]; IV 1 mg/kg, read-out: Vss) of 0.25 L/kg, a Vd ([1]; IV 1 mg/kg, read-out: Vz) of 0.74 L/kg and an AUC(0-inf) ([1]; IV 1 mg/kg) of 510 ng·h/mL. It also gave an AUC(0-t) ([1]; IV 1 mg/kg) of 510 ng·h/mL, a C0 ([1]; IV 1 mg/kg) of 3670 ng/mL and a Cmax ([1]; IV 1 mg/kg) of 1840 ng/mL. For the same compound, the Tmax ([1]; IV 1 mg/kg) was 4.98 min, the half-life ([1]; IV 1 mg/kg) was 15.6 min and the MRT last ([1]; IV 1 mg/kg) was 7.2 min. It also gave an MRT inf ([1]; IV 1 mg/kg) of 7.8 min, an AUC(0-inf) ([1]; PO 6 mg/kg) of 2680 ng·h/mL and an AUC(0-t) ([1]; PO 6 mg/kg) of 2680 ng·h/mL. It also gave a Cmax ([1]; PO 6 mg/kg) of 3780 ng/mL, a Tmax ([1]; PO 6 mg/kg) of 15 min and a half-life ([1]; PO 6 mg/kg) of 43.8 min. It also gave a bioavailability ([1]; PO 6 mg/kg vs IV 1 mg/kg) of 87.5%, an MRT last ([1]; PO 6 mg/kg) of 37.2 min and an MRT inf ([1]; PO 6 mg/kg) of 37.8 min. It also gave a Cmax ([2]; IV 1 mg/kg) of 27.6 ng/g, a Tmax ([2]; IV 1 mg/kg) of 4.8 min and a half-life ([2]; IV 1 mg/kg) of 6.6 min. For the same compound, the MRT last ([2]; IV 1 mg/kg) was 9 min, the MRT inf ([2]; IV 1 mg/kg) was 10.2 min and the Cmax ([2]; PO 6 mg/kg) was 42.6 ng/g. The Tmax ([2]; PO 6 mg/kg) was 15 min, the half-life ([2]; PO 6 mg/kg) was 24 min and the MRT last ([2]; PO 6 mg/kg) was 35.4 min. The MRT inf ([2]; PO 6 mg/kg) was 40.8 min, the “AUC(0−t)” value ([2]; IV 1 mg/kg) was 4.96 ng·h/g and the “AUC(0−∞)” value ([2]; IV 1 mg/kg) was 5.25 ng·h/g. The “AUC(0−t)” value ([2]; PO 6 mg/kg) was 35.86 ng·h/g and the “AUC(0−∞)” value ([2]; PO 6 mg/kg) was 37.46 ng·h/g.
